In one data set the test system is human HeLa cells. In words: Mammalian cytotoxicity, MTS viability. In kind it is cell-based. As for the experimental part:
(§1) Cytotoxicity of PSAC inhibitors was measured with human HeLa cells (ATCC # CLL-2) in 96-well plates at 4000 cells/well. Cultures were incubated with each inhibitor at 37° C. for 72 h in Minimal Essential Medium (Gibco/Invitrogen, Carlsbad, Calif.) supplemented with 10% fetal calf serum. Cell viability was quantified using the vital stain MTS [3-(4,5-dimethylthiazol-2-yl)-5-(3-carboxymethonyphenol)-2-(4-sulfophenyl)-2H-tetrazolium, inner salt], as described (Marshall et al., Growth Regul., 5: 69-84 (1995)). The reported CC50 value is the concentration of an inhibitor that reduces conversion of MTS to formazan by 50%.

Data set [1] is described as follows: Mammalian cytotoxicity, MTS viability. It counts as cell-based, human. The conditions noted are these: human, HeLa cells; 72 h, MTS; read-out: HeLa cell CC50. As for the experimental part: as §1
In data set [2] the test system is PSAC. In words: Transport inhibition assay, osmotic lysis of infected cells in sorbitol (Table 5). It counts as cell-based, P. falciparum.
In a further data set the test system is P. falciparum. In words: microbe, parasite or virus in culture. It counts as cell-based. The conditions noted are these: for IC50: Plasmodium falciparum, 72 h; for IC50 ratio: RPMI growth IC50 / PLM growth IC50.
A further data set deals with HB3 channels. In words: Cell-attached patch-clamp of HB3-infected erythrocytes. The note with it: 10 μM, 1.1 M Cl−.
The test system of data set [3] is PSAC. In words: Uptake of alanine, proline and PhTMA by osmotic lysis. It counts as cell-based, P. falciparum. The text has this: ISPA-28 effects on uptake of the amino acids alanine and proline as well as the organic cation phenyl-trimethylammonium (PhTMA), solutes with known increases in permeability after infection (Ginsburg et al., Mol. Biochem. Parasitol. 14: 313-22 (1985); Bokhari et al., J. Membr. Biol. 226: 27-34 (2008)), were also examined.

Data set [4] concerns PSAC. In words: Transport inhibition in 22 different laboratory parasite lines. In kind it is cell-based, P. falciparum.
The target in data set [5] is PSAC of Dd2 transfectant expressing HB3 allele for PFC0120w (clag 3.1) (Plasmodium falciparum, UniProt O77310). The note with it: read-out: transfectant K0.5; PFC0120w (clag 3.1) HB3 allele in Dd2.
The test system of the next data set is HB3^3rec. In words: In vitro parasite growth inhibition, HB3^3rec in PLM. In kind it is cell-based, P. falciparum. The conditions noted are these: after transport-based selection.
Data set [6] has as its system channels from HB3 parasites. In words: Sorbitol uptake osmotic lysis, HB3-infected cells. In kind it is cell-based, P. falciparum. The note with it: read-out: K0.5. As for the experimental part:
Inhibitor affinity for PSAC block was determined using a quantitative transmittance assay based on osmotic lysis of infected cells in sorbitol (Wagner et al., Biophys. J., 84: 116-123 (2003)). […] Other inhibitors had dose responses that are adequately fitted by a single Langmuir isotherm.

Data set [7] deals with PSAC activity on HB3^3rec. It counts as cell-based, P. falciparum. The conditions noted are these: HB3^3rec before selection.
Data set [8] relates to PSAC on Dd2-infected cells. In kind it is cell-based, P. falciparum. The conditions noted are these: Dd2 vs. HB3.
Data set [9] in a line: Inhibitor metabolism in parasite culture. In kind it is in vitro ADME, P. falciparum. The note with it: 40 μM, 37° C., 72 h in Dd2 culture. As for the experimental part: To examine possible inhibitor metabolism in parasite culture, Dd2 parasites were cultivated in standard media with 40 μM ISPA-28 at 37° C. for 72 h. After centrifugation, the culture supernatant was used as a source of ISPA-28 for comparison to freshly-prepared compound in transport inhibition studies.

A further data set has as its system HB3 parasites. In words: In vitro parasite growth inhibition, HB3. In kind it is cell-based, P. falciparum. The conditions noted are these: Plasmodium falciparum.
The subject of another data set is Dd2 parasites. In words: In vitro parasite growth inhibition, Dd2. It counts as cell-based, P. falciparum.
Data set [10] addresses T1, PSAC of Dd2 transfectant expressing HB3 allele for PFC0110w (clag 3.2) (Plasmodium falciparum, UniProt O77309).
T1 sequence (O77309 25-1416): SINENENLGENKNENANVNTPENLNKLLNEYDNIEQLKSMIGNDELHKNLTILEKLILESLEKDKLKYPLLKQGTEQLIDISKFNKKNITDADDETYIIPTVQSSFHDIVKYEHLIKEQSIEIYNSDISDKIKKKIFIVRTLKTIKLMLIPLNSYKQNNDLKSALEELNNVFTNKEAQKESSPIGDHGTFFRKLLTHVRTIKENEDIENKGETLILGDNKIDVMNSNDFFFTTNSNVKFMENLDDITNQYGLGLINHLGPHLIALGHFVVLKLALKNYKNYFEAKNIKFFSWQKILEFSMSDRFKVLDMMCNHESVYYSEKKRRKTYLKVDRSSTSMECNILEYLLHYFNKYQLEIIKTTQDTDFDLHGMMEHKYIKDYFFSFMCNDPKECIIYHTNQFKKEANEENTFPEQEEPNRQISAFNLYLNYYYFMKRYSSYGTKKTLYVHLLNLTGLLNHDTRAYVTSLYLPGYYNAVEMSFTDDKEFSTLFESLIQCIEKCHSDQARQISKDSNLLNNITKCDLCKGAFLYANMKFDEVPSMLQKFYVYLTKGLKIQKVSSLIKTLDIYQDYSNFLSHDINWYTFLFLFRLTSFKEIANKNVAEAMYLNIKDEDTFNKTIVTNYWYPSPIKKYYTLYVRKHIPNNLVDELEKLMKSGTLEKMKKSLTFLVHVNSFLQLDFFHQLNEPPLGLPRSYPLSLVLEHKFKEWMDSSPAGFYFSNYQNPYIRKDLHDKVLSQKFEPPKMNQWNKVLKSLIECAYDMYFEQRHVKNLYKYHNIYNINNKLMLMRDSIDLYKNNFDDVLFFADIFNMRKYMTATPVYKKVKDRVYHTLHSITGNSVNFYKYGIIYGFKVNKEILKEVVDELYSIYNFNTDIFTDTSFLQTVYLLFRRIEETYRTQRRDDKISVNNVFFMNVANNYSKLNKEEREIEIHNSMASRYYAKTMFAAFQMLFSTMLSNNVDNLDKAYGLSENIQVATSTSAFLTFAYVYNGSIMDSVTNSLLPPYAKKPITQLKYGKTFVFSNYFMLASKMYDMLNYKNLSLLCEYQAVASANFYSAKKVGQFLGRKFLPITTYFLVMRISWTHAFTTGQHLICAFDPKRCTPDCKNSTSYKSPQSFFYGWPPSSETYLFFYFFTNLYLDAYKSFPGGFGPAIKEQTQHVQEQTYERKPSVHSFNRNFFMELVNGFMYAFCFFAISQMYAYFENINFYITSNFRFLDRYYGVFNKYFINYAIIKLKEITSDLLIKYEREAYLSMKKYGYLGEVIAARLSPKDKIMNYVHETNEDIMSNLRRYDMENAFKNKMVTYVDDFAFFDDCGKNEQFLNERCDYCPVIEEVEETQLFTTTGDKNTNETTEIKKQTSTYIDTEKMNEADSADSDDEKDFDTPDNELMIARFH
In words: Sorbitol uptake inhibition, Dd2 transfectant expressing HB3 allele of PFC0110w. The conditions noted are these: read-out: transfectant K0.5; PFC0110w (clag 3.2) HB3 allele in Dd2.

The subject of another data set is Dd2 channels. In words: Cell-attached patch-clamp of Dd2-infected erythrocytes. The conditions noted are these: 10 μM, 1.1 M Cl−.
The target in data set [11] is T2, channels associated with clag3.2 gene from Dd2 (Plasmodium falciparum, UniProt A0A1W6IZK1).
T2 construct: rows headed: K0.5; other: clag3.2 from Dd2
In words: PSAC inhibition, 7C20 channels associated with clag3.2. It counts as cell-based, P. falciparum. The note with it: read-out: K0.5; clag3.2 from Dd2. As for the experimental part: (§2) A PSAC inhibitor with reversed specificity for the two Dd2 clag3 products was next sought. To this end, hits from the high-throughput screen of Example 2 were surveyed using the progeny clone 7C20 before and after selection for clag3.1 expression. This secondary screen identified ISPA-43 as a PSAC inhibitor with an allele specificity opposite that of ISPA-28 (Formula B below (K0.5 of 32 and 3.9 μM for channels associated with clag3.1 and clag3.2 genes from Dd2, respectively).

Data set [12] concerns channels associated with clag3.2 gene from Dd2. The description is as above. In kind it is cell-based, P. falciparum. As for the experimental part:
as §2

Data set [13] concerns the target channels associated with clag3.1 gene from Dd2 (Plasmodium falciparum, UniProt O77310). In words: PSAC inhibition, 7C20 channels associated with clag3.1. It counts as cell-based, P. falciparum. The note with it: clag3.1 from Dd2; read-out: K0.5. As for the experimental part: as §2
The mark [14] stands for this setting: 37° C., read-out: Transport inhibition K0.5.

Read-outs that look alike come from different tables or passages of the source.

T2 sequence (A0A1W6IZK1 whole entry, looked up): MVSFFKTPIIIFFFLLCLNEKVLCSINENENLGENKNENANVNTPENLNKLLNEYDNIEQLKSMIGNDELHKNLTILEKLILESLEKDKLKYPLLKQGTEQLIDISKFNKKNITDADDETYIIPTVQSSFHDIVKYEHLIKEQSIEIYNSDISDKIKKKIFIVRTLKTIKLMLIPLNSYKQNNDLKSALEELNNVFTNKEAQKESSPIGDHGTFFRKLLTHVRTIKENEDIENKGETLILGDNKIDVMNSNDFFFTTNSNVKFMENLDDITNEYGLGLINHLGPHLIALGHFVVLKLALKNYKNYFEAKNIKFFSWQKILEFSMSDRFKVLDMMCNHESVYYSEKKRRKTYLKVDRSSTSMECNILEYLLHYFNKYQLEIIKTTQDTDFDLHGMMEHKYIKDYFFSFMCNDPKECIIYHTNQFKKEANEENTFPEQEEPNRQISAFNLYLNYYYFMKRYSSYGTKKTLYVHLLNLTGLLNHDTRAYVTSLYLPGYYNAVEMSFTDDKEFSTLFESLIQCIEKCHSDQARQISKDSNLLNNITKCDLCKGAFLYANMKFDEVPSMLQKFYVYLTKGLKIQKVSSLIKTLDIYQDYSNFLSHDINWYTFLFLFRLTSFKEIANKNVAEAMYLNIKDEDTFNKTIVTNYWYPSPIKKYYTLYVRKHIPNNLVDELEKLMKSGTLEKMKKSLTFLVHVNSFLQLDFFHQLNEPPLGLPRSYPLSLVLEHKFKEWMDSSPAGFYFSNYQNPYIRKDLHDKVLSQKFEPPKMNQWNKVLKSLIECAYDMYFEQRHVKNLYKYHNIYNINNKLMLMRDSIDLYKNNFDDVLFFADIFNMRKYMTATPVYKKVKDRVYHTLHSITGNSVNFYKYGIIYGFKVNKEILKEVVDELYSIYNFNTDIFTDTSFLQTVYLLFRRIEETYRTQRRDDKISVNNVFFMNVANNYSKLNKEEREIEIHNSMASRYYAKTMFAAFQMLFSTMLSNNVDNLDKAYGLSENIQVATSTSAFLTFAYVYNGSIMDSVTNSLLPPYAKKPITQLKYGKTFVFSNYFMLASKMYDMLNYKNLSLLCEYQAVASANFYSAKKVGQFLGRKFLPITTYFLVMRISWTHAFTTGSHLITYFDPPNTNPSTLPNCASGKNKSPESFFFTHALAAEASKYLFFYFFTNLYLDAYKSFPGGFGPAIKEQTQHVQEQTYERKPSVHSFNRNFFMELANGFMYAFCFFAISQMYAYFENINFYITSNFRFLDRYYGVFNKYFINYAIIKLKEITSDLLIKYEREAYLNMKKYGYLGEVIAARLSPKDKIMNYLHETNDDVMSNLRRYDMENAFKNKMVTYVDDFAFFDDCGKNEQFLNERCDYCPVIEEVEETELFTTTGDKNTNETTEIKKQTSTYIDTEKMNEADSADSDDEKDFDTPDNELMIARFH
Sequence of channels associated with clag3.1 gene from Dd2 (O77310 whole entry, looked up): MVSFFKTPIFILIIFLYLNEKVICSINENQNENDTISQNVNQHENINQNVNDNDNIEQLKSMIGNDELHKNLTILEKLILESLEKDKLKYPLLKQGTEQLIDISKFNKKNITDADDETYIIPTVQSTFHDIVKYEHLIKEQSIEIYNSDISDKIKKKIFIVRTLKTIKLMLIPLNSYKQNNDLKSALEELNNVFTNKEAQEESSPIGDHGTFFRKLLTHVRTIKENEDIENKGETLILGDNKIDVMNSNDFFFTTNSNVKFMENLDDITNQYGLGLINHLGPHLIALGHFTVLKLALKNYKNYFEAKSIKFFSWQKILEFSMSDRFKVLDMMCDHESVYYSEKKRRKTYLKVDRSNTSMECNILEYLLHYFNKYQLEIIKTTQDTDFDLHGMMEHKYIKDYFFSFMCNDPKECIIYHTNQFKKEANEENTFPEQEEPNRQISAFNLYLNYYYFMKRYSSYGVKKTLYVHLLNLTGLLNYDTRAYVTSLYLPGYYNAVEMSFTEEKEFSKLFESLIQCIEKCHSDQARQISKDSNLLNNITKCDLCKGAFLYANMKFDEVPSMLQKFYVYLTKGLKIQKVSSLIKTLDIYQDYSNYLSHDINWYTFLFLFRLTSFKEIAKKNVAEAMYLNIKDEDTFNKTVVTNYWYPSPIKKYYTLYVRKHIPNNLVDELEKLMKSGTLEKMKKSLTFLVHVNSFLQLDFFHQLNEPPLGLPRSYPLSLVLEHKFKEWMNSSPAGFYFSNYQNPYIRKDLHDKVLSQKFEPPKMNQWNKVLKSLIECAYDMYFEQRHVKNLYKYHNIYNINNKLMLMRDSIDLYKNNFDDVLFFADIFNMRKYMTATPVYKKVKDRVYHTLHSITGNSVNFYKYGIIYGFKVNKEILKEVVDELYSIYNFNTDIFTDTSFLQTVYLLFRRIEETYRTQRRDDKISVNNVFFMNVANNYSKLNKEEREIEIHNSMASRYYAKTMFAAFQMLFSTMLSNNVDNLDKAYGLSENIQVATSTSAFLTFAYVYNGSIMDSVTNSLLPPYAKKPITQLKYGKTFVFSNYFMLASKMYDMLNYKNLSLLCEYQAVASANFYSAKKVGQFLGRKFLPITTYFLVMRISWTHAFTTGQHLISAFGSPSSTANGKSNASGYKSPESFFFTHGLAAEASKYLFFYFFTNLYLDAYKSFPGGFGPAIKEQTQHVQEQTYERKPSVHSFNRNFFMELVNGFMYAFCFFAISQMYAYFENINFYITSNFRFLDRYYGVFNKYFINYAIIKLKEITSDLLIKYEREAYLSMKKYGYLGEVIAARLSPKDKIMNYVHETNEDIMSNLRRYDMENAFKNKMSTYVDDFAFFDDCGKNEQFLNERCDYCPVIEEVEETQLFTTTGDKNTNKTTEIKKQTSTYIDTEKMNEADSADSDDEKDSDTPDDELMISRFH
Sequence of PSAC of Dd2 transfectant expressing HB3 allele for PFC0120w (clag 3.1) (O77310 whole entry, looked up): as above

Regarding `COc1ccc(NC(=O)c2cc3cc4ccc(C)cc4nc3o2)cc1` [(280)], in the data set on human HeLa cells, the “specificity (HeLa CC50/parasite PLM IC50)” value is >430. Besides, the CC50 at 72 h in data set [1] was > 100 µM. Moreover, the IC50 in the data set on PSAC [2] (read-out: Transport inhibition K0.5, 37° C.) was determined as 0.006 µM; in the data set with P. falciparum (read-out: PLM growth IC50) it was 0.23 µM; in the data set with P. falciparum (read-out: RPMI growth IC50) it was 18 µM. The IC50 ratio with P. falciparum is recorded as 270.

As for `CC1=Nc2ccc(C)cc2C1/C=C1/C(=N)N2N=C(S(=O)(=O)CC(C)C)SC2=NC1=O` (stereo not drawn) [Cpd 50], the “specificity (HeLa CC50/parasite PLM IC50)” value in the data set on human HeLa cells is given as >50. For the same molecule, in data set [1], the CC50 at 72 h was > 100 µM. Also, the IC50 was 0.081 µM in the data set with PSAC [2] (setting [14]), 2 µM with P. falciparum (read-out: PLM growth IC50) and > 30 µM in the data set on P. falciparum (read-out: RPMI growth IC50). Moreover, the IC50 ratio with P. falciparum is given as >15.

In the case of `Cc1ccc(C)c(N2CCN(S(=O)(=O)c3ccc(-c4ccc(=O)[nH]n4)s3)CC2)c1` [ISG-21], in the data set with human HeLa cells, the “specificity (HeLa CC50/parasite PLM IC50)” value is reported as 43,000. Moreover, in [1], the CC50 at 72 h is 86 µM. Also, the IC50 in the data set on PSAC [2] (setting [14]) came to 0.0026 µM; in the data set on P. falciparum (read-out: PLM growth IC50) it was 0.002 µM. Besides, the IC50 ratio with P. falciparum is on record as 800.

For `CCn1cc(C2=NOC(C(=O)Nc3c(C)n(C)n(-c4ccccc4)c3=O)C2)c(C)n1` (stereo not drawn) [ISPA-28], the entries for the “single PSAC channel inhibition” value with HB3 channels and in the data set with Dd2 channels were “largely unaffected” and “near-fully inhibited”, respectively. Also, in the data set on PSAC [3], the “effects on uptake of alanine, proline and phenyl-trimethylammonium (PhTMA)” value was “inhibited with dose responses matching those for sorbitol”. For the same molecule, the “transport inhibition in 22 laboratory parasite lines” value with PSAC [4] is “significant transport inhibition was found with only Dd2 and W2”. For the same molecule, the IC50 in data set [5] is 0.14 ± 0.012 µM; in [6] it was 43 ± 2 µM; in the data set on HB3 parasites (HB3, PLM), 52 ± 19 µM; in the data set with HB3 parasites (HB3, RPMI-based media), > 40 µM; in the data set on Dd2 parasites (Plasmodium falciparum, DD2, PLM), 0.66 ± 0.2 µM; in the data set on Dd2 parasites (Plasmodium falciparum, DD2, RPMI-based media), > 40 µM. The results for the IC50 (with Dd2 parasites (RPMI-based media); in data set [10]) were ~50 µM and 0.095 ± 0.008 µM, respectively. Besides, the growth inhibition sensitivity entry in the data set with HB3^3rec is reported as “sensitive to ISPA-28 at levels matching Dd2”. Also, in data set [7], the “channel's ISPA-28 affinity” value is “intermediate between those of HB3 and Dd2”. Also, the “difference in half-maximal affinities” value in data set [8] was ~800 fold. In addition, the “efficacy after metabolism under in vitro culture conditions” value in [9] is recorded as “not compromised by metabolism”.

In the case of `CCC(CC)C(=O)Nc1ncc2c(n1)CC(c1ccc(OC)c(OC)c1)CC2=O` (stereo not drawn) [ISPA-43], the IC50 in data set [11] was found to be 3.9 µM; in [13] it was 32 µM. Moreover, in [12], the “higher affinity for channels formed by Dd2 clag3.2 than clag3.1” value amounted to 10 fold.

(Values after patent US12059418B2, “Plasmodial surface anion channel inhibitors for the treatment or prevention of malaria” (The United States of America, as represented by the …, priority 2011, dated 2024).)
